What was measured:
Assay type in all cases: cell-based
Kv7.5 = biological target: T1, Kv7.5 (Homo sapiens, UniProt Q9NR82); assay: two-electrode voltage clamp in Xenopus oocytes, […]; current […] of control at +[…] mV; conditions: read-out: % of control current at +40 mV (10 μM)
T1 construct: gene KCNQ5

Kv7.4 = biological target: T2, Kv7.4 (Homo sapiens, UniProt P56696); assay: […] flux in transfected CHO cells; two-electrode voltage clamp in Xenopus oocytes; W242L loss of sensitivity
T2 construct: gene KCNQ4
T2 sequence (P56696 1-695): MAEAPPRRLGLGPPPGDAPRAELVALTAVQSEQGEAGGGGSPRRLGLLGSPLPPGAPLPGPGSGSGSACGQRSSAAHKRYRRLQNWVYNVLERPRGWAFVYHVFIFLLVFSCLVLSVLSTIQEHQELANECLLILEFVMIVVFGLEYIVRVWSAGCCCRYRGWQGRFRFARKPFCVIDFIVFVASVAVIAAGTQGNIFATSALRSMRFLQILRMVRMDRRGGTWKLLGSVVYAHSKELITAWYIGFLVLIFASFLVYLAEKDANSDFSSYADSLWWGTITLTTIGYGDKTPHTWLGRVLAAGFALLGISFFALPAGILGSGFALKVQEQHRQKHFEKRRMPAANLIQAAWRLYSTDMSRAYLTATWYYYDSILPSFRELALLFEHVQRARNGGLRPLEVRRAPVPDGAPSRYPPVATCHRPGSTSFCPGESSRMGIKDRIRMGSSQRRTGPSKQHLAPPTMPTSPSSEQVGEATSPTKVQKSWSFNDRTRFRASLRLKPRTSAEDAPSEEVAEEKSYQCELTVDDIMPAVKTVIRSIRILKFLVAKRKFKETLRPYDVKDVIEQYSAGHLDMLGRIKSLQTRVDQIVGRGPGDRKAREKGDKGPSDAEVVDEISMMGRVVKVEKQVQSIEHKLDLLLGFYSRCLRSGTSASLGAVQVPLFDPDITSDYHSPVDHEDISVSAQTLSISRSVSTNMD

Kv7.2 = biological target: T3, Kv7.2 (Homo sapiens, UniProt O43526); assay: […] flux in transfected CHO cells; two-electrode voltage clamp in Xenopus oocytes
T3 construct: gene KCNQ2

Kv7.1 = biological target: T4, Kv7.1 (Homo sapiens, UniProt P51787); assay: two-electrode voltage clamp in Xenopus oocytes, […]; weak inhibition; conditions: read-out: % of control current at +40 mV (10 μM)
T4 construct: gene KCNQ1
T4 sequence (P51787 1-676): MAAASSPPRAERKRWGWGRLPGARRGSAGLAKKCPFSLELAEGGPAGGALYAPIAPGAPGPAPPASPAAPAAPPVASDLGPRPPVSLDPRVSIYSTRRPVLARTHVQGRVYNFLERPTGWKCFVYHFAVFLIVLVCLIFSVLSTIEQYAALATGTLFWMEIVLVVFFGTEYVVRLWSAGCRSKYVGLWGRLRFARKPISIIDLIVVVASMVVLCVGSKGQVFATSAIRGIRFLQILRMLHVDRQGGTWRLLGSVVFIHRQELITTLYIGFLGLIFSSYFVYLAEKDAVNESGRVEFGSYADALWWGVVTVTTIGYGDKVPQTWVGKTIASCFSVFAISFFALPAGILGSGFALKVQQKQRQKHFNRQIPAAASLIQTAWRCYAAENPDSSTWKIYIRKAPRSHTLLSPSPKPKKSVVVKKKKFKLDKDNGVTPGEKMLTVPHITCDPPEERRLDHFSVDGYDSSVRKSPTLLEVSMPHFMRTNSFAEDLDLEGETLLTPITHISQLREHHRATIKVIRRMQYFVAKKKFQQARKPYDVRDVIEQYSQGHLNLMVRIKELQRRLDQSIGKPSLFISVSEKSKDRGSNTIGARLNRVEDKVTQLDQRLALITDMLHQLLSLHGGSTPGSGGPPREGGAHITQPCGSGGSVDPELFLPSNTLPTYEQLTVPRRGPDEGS

Kv7.2-W236L = biological target: T5, Kv7.2-W236L (Homo sapiens, UniProt O43526, W236L); assay: […] flux in transfected CHO cells; two-electrode voltage clamp in Xenopus oocytes (inhibition)
T5 construct: gene KCNQ2
T5 sequence (O43526 whole entry W236L): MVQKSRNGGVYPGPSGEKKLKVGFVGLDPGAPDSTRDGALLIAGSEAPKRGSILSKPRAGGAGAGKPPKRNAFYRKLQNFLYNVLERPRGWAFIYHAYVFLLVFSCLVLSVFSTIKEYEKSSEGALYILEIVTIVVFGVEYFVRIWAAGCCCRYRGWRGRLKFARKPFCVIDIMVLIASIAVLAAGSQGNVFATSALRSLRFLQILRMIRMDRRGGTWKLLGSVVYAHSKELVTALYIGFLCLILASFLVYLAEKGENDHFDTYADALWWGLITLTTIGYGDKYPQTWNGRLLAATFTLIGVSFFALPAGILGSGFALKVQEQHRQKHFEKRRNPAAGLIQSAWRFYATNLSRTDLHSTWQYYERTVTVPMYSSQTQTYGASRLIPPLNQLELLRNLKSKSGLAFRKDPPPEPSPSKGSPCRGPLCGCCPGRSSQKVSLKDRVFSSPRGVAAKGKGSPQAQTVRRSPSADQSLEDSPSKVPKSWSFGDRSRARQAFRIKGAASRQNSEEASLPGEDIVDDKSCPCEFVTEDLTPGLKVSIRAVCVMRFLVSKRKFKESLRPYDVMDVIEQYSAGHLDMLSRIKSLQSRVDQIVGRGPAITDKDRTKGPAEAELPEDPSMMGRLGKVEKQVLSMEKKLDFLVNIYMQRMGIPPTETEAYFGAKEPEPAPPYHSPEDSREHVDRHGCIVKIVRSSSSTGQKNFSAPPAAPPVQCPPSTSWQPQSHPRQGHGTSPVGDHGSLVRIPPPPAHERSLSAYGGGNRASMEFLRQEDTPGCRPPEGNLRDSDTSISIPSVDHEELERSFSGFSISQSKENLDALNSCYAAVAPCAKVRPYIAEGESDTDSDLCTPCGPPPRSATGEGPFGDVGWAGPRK

T1 sequence (Q9NR82 whole entry): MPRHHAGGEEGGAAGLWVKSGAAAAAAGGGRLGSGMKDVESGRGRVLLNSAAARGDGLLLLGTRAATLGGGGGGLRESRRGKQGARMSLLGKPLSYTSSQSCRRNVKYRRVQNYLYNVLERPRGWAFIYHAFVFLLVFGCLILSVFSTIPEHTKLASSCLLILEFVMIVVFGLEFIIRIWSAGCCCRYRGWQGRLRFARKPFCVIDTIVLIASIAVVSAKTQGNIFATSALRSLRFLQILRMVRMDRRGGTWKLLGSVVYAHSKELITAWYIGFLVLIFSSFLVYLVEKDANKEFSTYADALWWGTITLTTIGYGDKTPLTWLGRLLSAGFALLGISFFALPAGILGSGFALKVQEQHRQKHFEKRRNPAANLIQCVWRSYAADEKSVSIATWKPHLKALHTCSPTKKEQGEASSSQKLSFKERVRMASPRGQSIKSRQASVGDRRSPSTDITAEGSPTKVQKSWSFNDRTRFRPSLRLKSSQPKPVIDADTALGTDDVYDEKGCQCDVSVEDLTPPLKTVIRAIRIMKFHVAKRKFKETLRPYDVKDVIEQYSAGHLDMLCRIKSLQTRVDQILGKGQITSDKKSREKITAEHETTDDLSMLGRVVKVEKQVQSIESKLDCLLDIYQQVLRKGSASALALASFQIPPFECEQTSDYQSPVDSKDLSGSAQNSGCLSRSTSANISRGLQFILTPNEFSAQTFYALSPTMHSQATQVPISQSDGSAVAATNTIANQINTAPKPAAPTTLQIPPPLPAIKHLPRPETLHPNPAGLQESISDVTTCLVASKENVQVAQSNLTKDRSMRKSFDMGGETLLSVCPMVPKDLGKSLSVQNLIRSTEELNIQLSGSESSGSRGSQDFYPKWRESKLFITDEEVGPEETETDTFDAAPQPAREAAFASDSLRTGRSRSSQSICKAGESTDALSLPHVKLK
T3 sequence (O43526 whole entry): as the sequence (O43526 whole entry W236L) above, with L236W counted along it

remaining activity at 10 µM (Kv7.5): 676 ± 83.5%
EC50 (Kv7.4): 220 nM
EC50 (Kv7.2): 170 nM
remaining activity at 10 µM (Kv7.1): 87.9 ± 2.2%
IC50 (Kv7.2-W236L): 8100 nM
Compound: C[C@H](NC(=O)/C=C/c1ccccc1F)c1ccc2c(c1)N(CC1CC1)CCO2 [(S)-2, (S)-N-[1-(4-Cyclopropylmethyl-3,4-dihydro-2H-benzo[1], [4]oxazin-6-yl)-ethyl]-3-(2-fluoro-phenyl)-acrylamide]
